# Reference: patent US8299021B2, “Macrocyclic inhibitors of hepatitis C virus replication” (InterMune, Inc., priority 2005, dated 2012)
# Where two headings read alike, the source gives them in different places.
# Target: T1, NS3-NS4 protease (full-length NS3/NS4A-2) (Hepatitis C virus genotype 1a, UniProt P27958)
# T1 construct: Recombinant E. coli or Baculovirus full-length NS3 was diluted to 3.33 μM with assay buffer; made in house; host or cells: E. coli or baculovirus (insect cells)
# Assay: NS3-NS4 protease assay / NS3 inhibition assay (RETS1 substrate, fluorescence kinetic read)
# Type: biochemical
# Details: read-out: NS3-NS4 IC50
# Method: NS3 complex formation with NS4A-2.
# The appropriate amount of NS4A-2 to 8.3 mM in assay buffer was added to equal the volume of NS3 in step 2.1.1 (conversion factor—3.8 mg/272 μL assay buffer). The material was transferred to an eppendorf tube and place in water bath in 4° C. refrigerator.
# After equilibration to 4° C., equal volumes of NS3 and NS4A-2 solutions were combined in an eppendorf tube, mix gently with a manual pipettor, and incubate mixture for 15 minutes in the 4° C. water bath.
# After 15 minutes at 4° C., the NS3/NS4A-2 eppendorf tube was removed and place it in a room temperature water bath for 10 minutes. NS3/NS4A-2 was alliquoted at appropriate volumes and store at −80° C. (E. coli NS3 run at 2 nM in assay, aliquot at 25 μL. BV NS3 run at 3 nM in assay, aliquot at 30 μL).
# Sample compounds were dissolved to 10 mM in DMSO then diluted to 2.5 mM (1:4) in DMSO.
# The E. coli. […] Using the manual multichannel pipettor, careful not to introduce bubbles into the plate, add 50 μL assay buffer to wells A01-H01 of a black Costar 96-well polypropylene storage plate.
# Using the manual multichannel pipettor, careful not to introduce bubbles into the plate, add 50 μL of diluted NS3/NS4A-2 from step 2.2.6 to wells A02-H12 of plate in step 2.2.7. Using the manual multichannel pipettor, careful not to introduce bubbles into the plate, transfer 25 μL of the wells in drug dilution plate in step 2.2.5 to corresponding wells in assay plate in step 2.2.8. Change tips on multichannel pipettor for each row of compounds transferred. Using the manual multichannel pipettor, careful not to introduce bubbles into the plate, mix the wells from the assay plate in step 2.2.9 by aspirating and dispensing 35 μL of the 75 μL in each well five times. Change tips on multichannel pipettor for each row of wells mixed. Cover plate with a polystyrene plate lid and pre-incubate the plate from step 2.2.10 containing NS3 protease and sample compounds 10 minutes at room temperature. While plate from step 2.2.11 is pre-incubating, dilute RETS1 substrate in a 15 mL polypropylene centrifuge tube.
# After the plate in step is done pre-incubating, and using the manual multichannel, add 25 μL of substrate to all wells on the plate. Quickly mix the plate as in step 2.2.10, mixing 65 μL of the 100 μL in the wells.
# Read the plate in kinetic mode on the Molecular Devices SpectraMax
# IC50s are determined using a four parameter curve fit equation, and converted to Ki's using the following Km's:
# where Ki=IC50/(1+[S]/Km))
# T1 sequence (P27958 1027-1657): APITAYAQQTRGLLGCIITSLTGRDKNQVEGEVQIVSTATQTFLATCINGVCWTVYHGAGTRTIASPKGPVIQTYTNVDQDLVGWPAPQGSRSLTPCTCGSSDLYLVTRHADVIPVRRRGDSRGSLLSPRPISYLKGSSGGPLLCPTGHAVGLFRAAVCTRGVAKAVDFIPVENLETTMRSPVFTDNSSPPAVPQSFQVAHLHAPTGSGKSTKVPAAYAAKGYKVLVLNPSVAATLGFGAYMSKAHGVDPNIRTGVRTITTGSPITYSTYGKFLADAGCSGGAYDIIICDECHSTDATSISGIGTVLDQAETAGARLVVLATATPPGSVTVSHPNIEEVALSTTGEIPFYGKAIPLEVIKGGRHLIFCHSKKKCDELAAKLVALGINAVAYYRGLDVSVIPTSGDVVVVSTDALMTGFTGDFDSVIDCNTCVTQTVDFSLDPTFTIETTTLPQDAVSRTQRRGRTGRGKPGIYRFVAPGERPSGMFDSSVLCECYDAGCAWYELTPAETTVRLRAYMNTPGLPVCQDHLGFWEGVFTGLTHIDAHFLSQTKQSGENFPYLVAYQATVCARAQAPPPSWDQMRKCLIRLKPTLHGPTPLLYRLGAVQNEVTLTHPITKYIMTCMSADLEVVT
SMILES,IC50,also measured
CC(C)(C)OC(=O)N[C@H]1CCCCC/C=C\[C@@H]2C[C@@]2(C(=O)Nc2ccc(F)cc2)NC(=O)[C@@H]2CCCN2C1=O [Compound 2304],–,IC50 (Table 22): < 1000 nM
CC(C)(C)OC(=O)N[C@H]1CCCCC/C=C\[C@@H]2C[C@@]2(C(=O)NS(=O)(=O)N2CCCCC2)NC(=O)[C@@H]2CCCN2C1=O [Compound 2219],< 10000 nM,–
CC(C)(C)OC(=O)N[C@H]1CCCCC/C=C\[C@@H]2C[C@@]2(C(=O)NCc2ccccc2)NC(=O)[C@@H]2CCCN2C1=O [Compound 2307],–,IC50 (Table 22): < 1000 nM
CC(C)(C)OC(=O)N[C@H]1CCCCC/C=C\[C@@H]2C[C@@]2(C(=O)NS(=O)(=O)c2cnccc2Cl)NC(=O)[C@@H]2CCCN2C1=O [Compound 2128],< 10000 nM,–
COc1ccc(NS(=O)(=O)NC(=O)[C@@]23C[C@H]2/C=C\CCCCC[C@H](NC(=O)OC(C)(C)C)C(=O)N2CCC[C@H]2C(=O)N3)cc1 [Compound 2244],< 100 nM,–
Cc1ccc(CC(=O)N[C@H]2CCCCC/C=C\[C@@H]3C[C@@]3(C(=O)NS(=O)(=O)C3CC3)NC(=O)C3CCCN3C2=O)cc1 (stereo partly drawn) [Compound 2140],> 10000 nM,–
"CO[C@@H]1C[C@H]2C(=O)N[C@]3(C(=O)NS(=O)(=O)C4CC4)C[C@H]3/C=C\CCCCC[C@H](NC(=O)OC(C)(C)C)C(=O)N2C1 [Compound 2146, 1S,4R,6S,14S,18R)-tert-Butyl 4-cyclopropylsulfonylaminocarbonyl-2,15-dioxo-3,16-diaza-18-methoxy-tricyclo[14.3.0.0^4,6]nonadec-7-ene-14-yl carbamate]",> 10000 nM,–
CC(C)S(=O)(=O)NC(=O)[C@@]12C[C@H]1/C=C\CCCCC[C@H](NC(=O)OC(C)(C)C)C(=O)N1CCC[C@H]1C(=O)N2 [Compound 2104],< 10000 nM,–
CC(C)(C)OC(=O)N[C@H]1CCCCC/C=C\[C@@H]2C[C@@]2(C(=O)NS(C)(=O)=O)NC(=O)[C@@H]2CCCN2C1=O [Compound 2103],< 1000 nM,–
CC(C)(C)OC(=O)NC1CCCCCC=CC2CC2(C(=O)NS(=O)(=O)C(F)(F)F)NC(=O)C2CCCN2C1=O (stereo not drawn) [Compound 2107],< 1000 nM,–
Cc1ccc([S@+]([O-])NC(=O)[C@@]23C[C@H]2/C=C\CCCCC[C@H](NC(=O)OC(C)(C)C)C(=O)N2C[C@H](OC(=O)N4Cc5ccccc5C4)C[C@H]2C(=O)N3)cc1 [Compound 2602],–,IC50 (Table 25): < 10000 nM
CC(C)(C)OC(=O)NC1CCCCCC=CC2CC2(C(=O)NS(=O)(=O)c2ccccc2Cl)NC(=O)C2CCCN2C1=O (stereo not drawn) [Compound 2109],< 10000 nM,–
CCc1ccc(NS(=O)(=O)NC(=O)[C@@]23C[C@H]2/C=C\CCCCC[C@H](NC(=O)OC(C)(C)C)C(=O)N2CCC[C@H]2C(=O)N3)cc1 [Compound 2242],< 1000 nM,–
COc1cccc(NC(=O)[C@@]23C[C@H]2/C=C\CCCCC[C@H](NC(=O)OC(C)(C)C)C(=O)N2CCC[C@H]2C(=O)N3)c1 [Compound 2312],–,IC50 (Table 22): < 1000 nM
CC(C)(C)OC(=O)N[C@H]1CCCCC/C=C\[C@@H]2C[C@@]2(C(=O)NS(=O)(=O)NC2CCC2)NC(=O)[C@@H]2CCCN2C1=O [Compound 2214],< 1000 nM,–
CCCNS(=O)(=O)NC(=O)[C@@]12C[C@H]1/C=C\CCCCC[C@H](NC(=O)OC(C)(C)C)C(=O)N1CCC[C@H]1C(=O)N2 [Compound 2217],< 1000 nM,–
CCC1CCCCN1S(=O)(=O)NC(=O)[C@@]12C[C@H]1/C=C\CCCCC[C@H](NC(=O)OC(C)(C)C)C(=O)N1CCC[C@H]1C(=O)N2 (stereo partly drawn) [Compound 2220],< 1000 nM,–
CN(CC#N)S(=O)(=O)NC(=O)[C@@]12C[C@H]1/C=C\CCCCC[C@H](NC(=O)OC(C)(C)C)C(=O)N1CCC[C@H]1C(=O)N2 [Compound 2249],< 1000 nM,–
CC(C)(C)OC(=O)N[C@H]1CCCCC/C=C\[C@@H]2C[C@@]2(C(=O)NS(=O)(=O)c2ccc(Cl)cc2Cl)NC(=O)[C@@H]2CCCN2C1=O [Compound 2153],< 10000 nM,–
CC(C)OC(=O)N[C@H]1CCCCC/C=C\[C@@H]2C[C@@]2(C(=O)NS(=O)(=O)Nc2ccc(Cl)cc2)NC(=O)[C@@H]2CCCN2C1=O [Compound 418],> 10000 nM,–
CN(CCc1ccccc1)S(=O)(=O)NC(=O)[C@@]12C[C@H]1/C=C\CCCCC[C@H](NC(=O)OC(C)(C)C)C(=O)N1CCC[C@H]1C(=O)N2 [Compound 2248],< 10000 nM,–
